# Activity calls are given as the source filed them. The rule behind the calls is not given here.
# Tests used:
# [1] = test system: DU-145; experiment: Induction of morphological changes in human DU145 cells assessed as decrease in cell size at 20 uM after 12 hrs by inverted microscopy; assay type: functional, cell-based
# [2] = Cytotoxicity against human IOSE-144 cells after 48 hrs by MTT assay; assay type: cell-based; settings: IOSE-144, 48 h
# [3] = test system: DU-145; experiment: Induction of cell cycle arrest in human DU145 cells assessed as accumulation at Sub G1 phase at 20 uM after 12 hrs by propidium iodide staining-based flow cytometry (reference value: 1.57 to 1.59%); assay type: functional
# [4] = Antiproliferative activity against human PC3 cells after 48 hrs by MTT assay; assay type: functional, cell-based; settings: PC-3, 48 h
# [5] = test system: DU-145; experiment: Induction of apoptosis in human DU145 cells assessed as chromatin nucleus condensation at 20 uM after 12 hrs by DAPI staining-based fluorescence microscopy; assay type: functional, cell-based
# [6] = test system: DU-145; experiment: Induction of cell cycle arrest in human DU145 cells assessed as accumulation at Sub G1 phase at 20 uM after 6 hrs by propidium iodide staining-based flow cytometry (reference value: 1.57 to 1.59%); assay type: functional
# [7] = test system: DU-145; experiment: Induction of morphological changes in human DU145 cells assessed as formation of bubble-shaped regions at 20 uM after 12 hrs by inverted microscopy; assay type: functional, cell-based
# [8] = Antiproliferative activity against human DU145 cells after 48 hrs by MTT assay; assay type: functional, cell-based; settings: DU-145, 48 h
# [9] = test system: DU-145; experiment: Induction of morphological changes in human DU145 cells assessed as spherical cells at 20 uM after 12 hrs by inverted microscopy; assay type: functional, cell-based
# [10] = Antiproliferative activity against human alpha-2 cells after 48 hrs by MTT assay; assay type: functional, cell-based
# [11] = test system: MDA-MB-231; experiment: Antiproliferative activity against human MDA-MB-231 cells after 48 hrs by MTT assay; assay type: functional, cell-based; settings: MDA-MB-231, 48 h
# [12] = Antiproliferative activity against human BGC823 cells after 48 hrs by MTT assay; assay type: functional, cell-based; settings: BGC-823, 48 h
# [13] = test system: DU-145; experiment: Induction of cell cycle arrest in human DU145 cells assessed as accumulation at Sub G1 phase at 20 uM after 3 hrs by propidium iodide staining-based flow cytometry (reference value: 1.57 to 1.59%); assay type: functional
# [14] = test system: DU-145; experiment: Induction of apoptosis in human DU145 cells assessed as formation of apoptotic bodies at 20 uM after 12 hrs by DAPI staining-based fluorescence microscopy; assay type: functional, cell-based
# [15] = test system: DU-145; experiment: Induction of cell cycle arrest in human DU145 cells assessed as accumulation at Sub G1 phase at 20 uM after 18 hrs by propidium iodide staining-based flow cytometry (reference value: 1.57 to 1.59%); assay type: functional
IC50 [11],Compound,Activity [1],IC50 [2],Activity [3],IC50 [4],Activity [5],Activity [6],Activity [7],IC50 [8],Activity [9],IC50 [10],IC50 [12],Activity [13],Activity [14],Activity [15]
4.2 µM,CC(C)(O)CCC[C@@](C)(O)[C@H]1CC[C@]2(C)[C@@H]1[C@H](O)C[C@@H]1[C@@]3(C)CC[C@H](OC(=O)[C@@H](N)CCCNC(=N)N)C(C)(C)[C@@H]3CC[C@]12C,Active,> 100 µM,34.07%,6.1 µM,Active,16.29%,Active,5.5 µM,Active,7.1 µM,4.6 µM,7.37%,Active,
4.2 µM,CC(C)(O)CCC[C@@](C)(O)[C@H]1CC[C@]2(C)[C@@H]1[C@H](O)C[C@@H]1[C@@]3(C)CC[C@H](OC(=O)[C@@H](N)CCC(=O)O)C(C)(C)[C@@H]3CC[C@]12C,Active,> 100 µM,13.39%,9.9 µM,Active,9.81%,Active,6.5 µM,Active,6.2 µM,6.9 µM,,Active,30.53%

Compound,IC50 [11],Activity [1],IC50 [2],Activity [3],IC50 [4],Activity [5],Activity [6],Activity [7],IC50 [8],Activity [9],IC50 [10],IC50 [12],Activity [13],Activity [14],Activity [15]
CC(C)(O)CCC[C@@](C)(O)[C@H]1CC[C@]2(C)[C@@H]1[C@H](O)C[C@@H]1[C@@]3(C)CC[C@H](O)C(C)(C)[C@@H]3CC[C@]12C,33 µM,,> 100 µM,,57 µM,,,,53 µM,,48 µM,46 µM,,,

# — ChEMBL document CHEMBL3769368, “Semi-synthesis and anti-tumor evaluation of novel 25-hydroxyprotopanaxadiol derivatives as apoptosis inducing agents” (Medchemcomm, 2015)
